Data reported in US20260374766A1, “METHODS FOR TREATING CANCER” (Antares Therapeutics, Inc., priority 2022, published 2026).
Like-named read-outs stand apart in the source and are kept apart here.

What was measured:
[1] = target: T1, p53 Y220C mutant protein (amino acid residues 94-293) (Homo sapiens, UniProt P04637, Y220C); test: Surface Plasmon Resonance (SPR) assay, Kd_kinetic; format: binding; conditions: read-out: SPR P53 Y220C KD kinetic
T1 construct: p53 Y220C mutant protein (amino acid residues 94-293)
Summary of the method: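 Kd values come from fitting sensorgrams to a 1:1 binding model. Sensorgrams were recorded on a Biacore 8K at 16 or 20 °C in pH 7.5 Tris buffer with 100 mM NaCl, 1 mM DTT, detergents and 1% DMSO.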

[2] = target: T1, p53 Y220C mutant protein (amino acid residues 94-293); test: Thermal Shift Assay (TSA), dTM; format: binding; conditions: p53 Y220C, read-out: TSA P53 Y220C dTM; for ΔTm at 10 µM: 10 uM compound; for ΔTm at 100 µM: 100 uM compound
Summary of the method: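 Sypro Orange melt (30→50 °C, 0.03 °C/s) with TM taken from a Boltzmann two-state fit. Protein (residues 94-293) at 5 μM was pre-incubated 3 h at 20 °C with compound at 10 μM or 100 μM in pH 7.4 HEPES/NaCl buffer containing 0.01% Pluronic F-127 and 1% DMSO.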

p53 Y220C = p53 Y220C (Homo sapiens, UniProt P04637, Y220C); test: Luciferase Reporter Assay (Luc), p53 response element, NClH1299 cells with inducible p53 Y220C; format: cell-based; conditions: luciferase reporter, NClH1299 inducible p53 Y220C, 6 hour; for AC50: read-out: Luc P53 Y220C AC50
Summary of the method: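 Cells were seeded at 5,000 per well and induced with 0.5 ug/mL doxycycline for 24 hours, then exposed to compound for 6 hours. One-Glo reagent was added, plates shaken 5 minutes at room temperature, and luminescence read immediately.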

NUGC3 p53 Y220C = test: Cell Proliferation Assay (CellTiter-Glo, CTG), NUGC3 p53 Y220C; format: cell-based; conditions: Homo sapiens, NUGC-3, 120 h, NUGC3 cells, 5 days, CellTiter-Glo
Summary of the method: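 NClH1299 lines stably transduced with Tet-inducible p53 Y220C or R273H, plus NUGC3, were treated with compound for 5 days at 250-500 cells/well. IC50 derived from CellTiter-Glo luminescent signal after 10 min room-temperature incubation.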

H1299 p53 Y220C = test: Cell Proliferation Assay (CellTiter-Glo, CTG), H1299 p53 Y220C (NClH1299-inducible p53 Y220C); format: cell-based; conditions: Homo sapiens, NCI-H1299, 120 h, NClH1299-inducible p53 Y220C cells, 5 days, CellTiter-Glo
Summary of the method: (§1)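 Tet-One inducible p53 Y220C or R273H constructs were stably introduced into NCI-H1299 by lentiviral transduction; NUGC3 was used as is. Cells (250-500 per well) were exposed to compound for 5 days, then CellTiter-Glo was added for 10 min at room temperature and IC50 was calculated from luminescence.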

H1299 p53 R273H = test: Cell Proliferation Assay (CellTiter-Glo, CTG), H1299 p53 R273H (NClH1299-inducible p53 R273H); format: cell-based; conditions: Homo sapiens, NCI-H1299, 120 h, NClH1299-inducible p53 R273H cells, 5 days, CellTiter-Glo
Summary of the method: as §1

SMILES | Kd ([1]; SPR, p53 Y220C) [nM] | ΔTm at 10 µM [2] [°C] | ΔTm at 100 µM [2] [°C] | AC50 (p53 Y220C) [nM] | Emax (p53 Y220C) [%] | IC50 (H1299 p53 Y220C) [nM] | IC50 (H1299 p53 R273H) [nM] | Kd [1] [nM] | IC50 (NUGC3 p53 Y220C) [nM]
CNC(=O)c1cnc(OC)c(NCC#Cc2cc3c(N[C@@H]4CCN(C)C[C@@H]4F)nccn3c2SC(F)F)c1 [Example 327] | < 10 | ≥ 10 |  | < 750 | > 90 | < 750 | ≥ 10000 |  | < 750
CNC(=O)c1ccc(OC2COC2)c(NCC#Cc2cc3c(N[C@@H]4CCN(C)C[C@@H]4F)nccn3c2SC(F)(F)F)c1 [Example 336] | < 10 | ≥ 10 |  | < 750 | > 90 | < 750 | < 5000 |  | < 750
CNC(=O)c1cnc(OC)c(NCC#Cc2cc3c(N[C@@H]4CN(C)C[C@@H]4F)cccn3c2SC(F)(F)F)c1 [Example 338] | < 10 | ≥ 10 |  | < 750 | > 90 | < 750 | 5000 to 8000 |  | < 750
COc1cc(S(C)(=O)=O)ccc1NCC#Cc1cc2c(N[C@@H]3CN(C)C[C@@H]3F)cccn2c1SC(F)(F)F [Example 339] | < 10 | ≥ 10 |  | < 750 | 80 to 90 | < 750 | 5000 to 8000 |  | < 750
CNC(=O)c1ccc(OC)c(NCC#Cc2cc3c(N[C@@H]4CCNC[C@@H]4F)nccn3c2SC(F)(F)F)n1 [Example 340] | < 10 | ≥ 10 |  | < 750 | 80 to 90 | < 750 | ≥ 10000 |  | < 750
COc1cc(S(C)(=O)=O)ccc1NCC#Cc1cc2c(N[C@@H]3CCN(C)C[C@@H]3F)cccn2c1SC(F)(F)F [Example 341] | < 10 | ≥ 10 |  | < 750 | > 90 | < 750 | 5000 to 8000 |  | < 750
COc1cc(S(C)(=O)=O)ccc1NCC#Cc1cc2c(N[C@@H]3CCN(C)C[C@@H]3F)nccn2c1SC(F)(F)F [Example 342] |  | ≥ 10 |  | < 750 | > 90 | < 750 | 5000 to 8000 | < 10 | < 750
CNC(=O)c1ccc(OC)c(NCC#Cc2cc3c(N[C@@H]4CCN(C)C[C@@H]4F)cccn3c2SC(F)F)c1 [Example 343] | < 10 | ≥ 10 |  | < 750 | > 90 | < 750 | ≥ 10000 |  | < 750
COc1cc(S(C)(=O)=O)ccc1NCC#Cc1cc2c(N[C@@H]3CCN(C)C[C@@H]3F)cccn2c1SC(F)F [Example 344] | < 10 | ≥ 10 |  | < 750 | > 90 | < 750 | 5000 to 8000 |  | < 750
CNC(=O)c1ccc(OC)c(NCC#Cc2cc3c(N[C@@H]4CCN(C)C[C@@H]4F)cccn3c2SC(F)(F)F)n1 [Example 345] | < 10 | ≥ 10 |  | < 750 | 80 to 90 | < 750 | 8000 to 10000 |  | < 750
COc1cc(P(C)(C)=O)ccc1NCC#Cc1cc2c(N[C@@H]3CCN(C)C[C@@H]3F)cccn2c1SC(F)(F)F [Example 346] | < 10 | ≥ 10 |  | < 750 | > 90 | < 750 | 8000 to 10000 |  | < 750
CNC(=O)c1cc(F)c(OC)c(NCC#Cc2nc3c(N[C@@H]4CCN(C)C[C@@H]4F)nccn3c2SC(F)(F)F)c1 [Example 347] | < 10 | ≥ 10 |  | < 750 | > 90 | < 750 | ≥ 10000 |  | < 750
CNC(=O)c1ccc(C(=O)NC)c(NCC#Cc2cc3c(N[C@@H]4CCN(C)C[C@@H]4F)nccn3c2SC(F)(F)F)c1 [Example 348] | < 10 | ≥ 10 |  | < 750 | > 90 | < 750 | ≥ 10000 |  | < 750
COc1cc(P(C)(C)=O)ccc1NCC#Cc1cc2c(N[C@@H]3CCN(C)C[C@@H]3F)cccn2c1SC(F)F [Example 349] | < 10 | ≥ 10 |  | < 750 | 80 to 90 | < 750 | ≥ 10000 |  | < 750
CNC(=O)c1ccc(NCC#Cc2cc3c(N[C@@H]4CCN(C5COC5)C[C@@H]4F)nccn3c2SC(F)(F)F)c(OC)c1 [Example 350] |  | ≥ 10 |  | < 750 | > 90 | < 750 | ≥ 10000 | < 10 | < 750
CNC(=O)c1ccc(OC)c(NCC#Cc2cc3c(N[C@@H]4CCN(C5COC5)C[C@@H]4F)nccn3c2SC(F)(F)F)c1 [Example 351] | < 10 | ≥ 10 |  | < 750 | > 90 | < 750 | ≥ 10000 |  | < 750

Further lines, with some results ahead:

Kd ([1]; SPR, p53 Y220C) [nM] | ΔTm at 10 µM [2] [°C] | ΔTm at 100 µM [2] [°C] | AC50 (p53 Y220C) [nM] | Emax (p53 Y220C) [%] | IC50 (H1299 p53 Y220C) [nM] | IC50 (H1299 p53 R273H) [nM] | Kd [1] [nM] | SMILES | IC50 (NUGC3 p53 Y220C) [nM]
< 10 | ≥ 10 | ≥ 10 | < 750 | 80 to 90 | < 750 | < 5000 |  | COc1cc2c[nH]nc2cc1NCC#Cc1nc2c(N[C@@H]3CCN(C)C[C@@H]3F)cccn2c1SC(F)(F)F [Example 308, N-[3-(8-{[(3S,4R)-3-fluoro-1-methylpiperidin-4-yl]amino}-3-[(trifluoromethyl)sulfanyl]imidazo[1,2-a]pyridin-2-yl)prop-2-yn-1-yl]-5-methoxy-2H-indazol-6-amine] | < 750
< 10 | ≥ 10 |  | < 750 | 70 to 80 | < 750 | < 5000 |  | CCNC(=O)c1ccc(OC)c(NCC#Cc2nc3c(N[C@@H]4CCN(C)C[C@@H]4F)nccn3c2SC(F)(F)F)c1 [Example 309] | < 750
< 10 | ≥ 10 |  | < 750 | > 90 | < 750 | 5000 to 8000 |  | CNC(=O)c1ccc(Cl)c(NCC#Cc2nc3c(N[C@@H]4CCN(C)C[C@@H]4F)cccn3c2SC(F)(F)F)c1 [Example 312] | < 750
< 10 | ≥ 10 |  | < 750 | 80 to 90 | < 750 | ≥ 10000 |  | CCNC(=O)c1ccc(NCC#Cc2nn3c(N[C@@H]4CCN(C)C[C@@H]4F)cccc3c2SC(F)F)c(OC)c1 [Example 317] | < 750
< 10 | ≥ 10 |  | < 750 | 80 to 90 | < 750 | 5000 to 8000 |  | CCNC(=O)c1ccc(OC)c(NCC#Cc2nn3c(N[C@@H]4CCN(C)C[C@@H]4F)cccc3c2SC(F)F)c1 [Example 318] | < 750
< 10 | ≥ 10 |  | < 750 | > 90 | < 750 | ≥ 10000 |  | CNC(=O)c1ccc(NCC#Cc2nc3c(N[C@@H]4CCNC[C@@H]4F)nccn3c2SC(F)(F)F)c(OC)c1 [Example 319] | < 750
< 10 | ≥ 10 |  | < 750 | > 90 | < 750 | ≥ 10000 |  | CNC(=O)c1ccc(OC)c(NCC#Cc2cc3c(N[C@@H]4CCN(C)C[C@@H]4F)nccn3c2SC(F)F)c1 [Example 321] | < 750
< 10 | ≥ 10 | ≥ 10 | < 750 | 80 to 90 | < 750 | 5000 to 8000 |  | CNC(=O)c1ccc(NCC#Cc2nc3c(N[C@@H]4C[C@H]5CC[C@H](N5)[C@@H]4F)cccn3c2SC(F)(F)F)c(OC)c1 [Example 324, 4-{[3-(8-{[(1S,2S,3R,5R)-2-fluoro-8-azabicyclo[3.2.1]octan-3-yl]amino}-3-[(trifluoromethyl)sulfanyl]imidazo[1,2-a]pyridin-2-yl)prop-2-yn-1-yl]amino}-3-methoxy-N-methylbenzamide] | < 750
